These results are taken from patent US20190055212A1, “HISTONE DEMETHYLASE INHIBITORS” (priority 2016, published 2019).

By IC50 is commonly meant the point on the concentration scale where inhibition reaches its midpoint. A lower IC50 goes with greater potency in that assay.

Sequence of KDM5B enzyme (Q9UGL1 whole entry): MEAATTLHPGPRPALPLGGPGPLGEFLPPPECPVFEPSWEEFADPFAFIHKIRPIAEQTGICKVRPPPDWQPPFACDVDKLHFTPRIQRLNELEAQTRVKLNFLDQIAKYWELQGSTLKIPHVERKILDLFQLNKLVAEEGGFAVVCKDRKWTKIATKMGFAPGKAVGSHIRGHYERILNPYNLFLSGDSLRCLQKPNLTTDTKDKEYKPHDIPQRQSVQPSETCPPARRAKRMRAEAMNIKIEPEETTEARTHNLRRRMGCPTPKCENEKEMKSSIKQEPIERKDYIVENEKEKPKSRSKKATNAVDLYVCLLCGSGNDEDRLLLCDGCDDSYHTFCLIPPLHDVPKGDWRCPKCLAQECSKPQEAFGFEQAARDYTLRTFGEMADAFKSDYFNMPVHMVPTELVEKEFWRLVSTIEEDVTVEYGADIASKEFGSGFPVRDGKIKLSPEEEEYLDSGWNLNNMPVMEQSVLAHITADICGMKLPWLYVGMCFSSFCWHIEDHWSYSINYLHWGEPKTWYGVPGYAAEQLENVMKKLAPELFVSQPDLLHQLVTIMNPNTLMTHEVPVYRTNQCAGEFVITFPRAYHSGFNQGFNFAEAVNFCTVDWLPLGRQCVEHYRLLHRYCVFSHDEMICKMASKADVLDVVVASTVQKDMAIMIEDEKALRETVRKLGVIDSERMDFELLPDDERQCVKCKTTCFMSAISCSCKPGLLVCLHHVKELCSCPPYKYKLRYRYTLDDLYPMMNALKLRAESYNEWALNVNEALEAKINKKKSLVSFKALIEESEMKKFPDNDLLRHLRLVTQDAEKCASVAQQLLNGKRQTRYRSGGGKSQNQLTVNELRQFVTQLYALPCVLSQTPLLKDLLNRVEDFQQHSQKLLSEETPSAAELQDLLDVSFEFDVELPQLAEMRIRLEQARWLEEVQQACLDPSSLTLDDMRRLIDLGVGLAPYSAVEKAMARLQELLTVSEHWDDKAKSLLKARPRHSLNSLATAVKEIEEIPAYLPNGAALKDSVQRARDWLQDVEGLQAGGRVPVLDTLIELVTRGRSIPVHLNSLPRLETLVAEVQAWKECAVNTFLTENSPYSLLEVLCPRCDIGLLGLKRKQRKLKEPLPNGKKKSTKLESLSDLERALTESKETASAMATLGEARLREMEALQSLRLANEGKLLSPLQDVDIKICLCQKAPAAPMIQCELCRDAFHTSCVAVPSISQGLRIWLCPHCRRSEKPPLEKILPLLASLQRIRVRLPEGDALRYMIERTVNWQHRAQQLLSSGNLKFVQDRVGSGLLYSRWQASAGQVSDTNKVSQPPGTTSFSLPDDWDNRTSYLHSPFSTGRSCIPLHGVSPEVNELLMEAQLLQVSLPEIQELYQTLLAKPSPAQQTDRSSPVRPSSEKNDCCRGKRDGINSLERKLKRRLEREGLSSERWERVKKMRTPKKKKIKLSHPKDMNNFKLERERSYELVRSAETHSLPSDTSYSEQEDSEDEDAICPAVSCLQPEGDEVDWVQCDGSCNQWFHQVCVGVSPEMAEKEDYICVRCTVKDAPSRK

The assay has as its target KDM5B enzyme (Homo sapiens, UniProt Q9UGL1). As to the kind of experiment: KDM5B HTRF (TR-FRET) demethylase inhibition assay. The following applies: 1.2 nM KDM5B, 30 nM Biotin-H3K4Me3 1-21 substrate, 10 point dose-response. In kind it is biochemical. The method, then: Ten point dose-response curves for compounds shown in Table 1 were determined using a homogeneous time resolved fluorescence (HTRF) assay (Reaction Biology Corp, Malvern, Pa.). This assay combines fluorescence resonance energy transfer (FRET) with time resolve (TR) measurements (TR-FRET). The KDM5B α-ketoglutarate-dependent demethylase activity is calculated by measuring demethylation of a biotin labeled histone tri-methylated H3K4 substrate using an europium-cryptate (Eu)-labeled antibody donor specific for dimethylated histone H3K4 and a Streptavidin-XL665 acceptor that binds to the biotin group of substrate, and detecting FRET by exciting the reaction mixture at 320 nm and reading dual emissions at 615 nm and 665 nm.
Briefly, compounds disclosed herein were solubilized in DMSO and a series of 10, three-fold serial dilutions were made for each compound in 100% DMSO. The initial starting concentration for the serial dilutions of each compound was 10 μM or 100 μM. Control samples lacking compound, KDM5B enzyme or various reaction components also were prepared and processed in parallel with compound test samples.
An aliquot of each serial dilution of test compound was added to a 384 well plate (Corning Cat #3572) containing 1.2 nM KDM5B enzyme suspended in 50 mM Hepes, pH7.5, 50 mM NaCl, 0.01% Tween 20, 0.1% BSA, and 1% DMSO (final concentrations) in a 10 microliter reaction volume using a LABCYTE ECHO liquid handler. The samples were mixed, subjected to centrifugation and the plate was pre-incubated at room temperature for 15 min, to which 30 nM Biotin-H3K4Me3 1-21 substrate (Anaspec Cat #64192), 20 μM […] and 20 μM α-ketoglutarate co-factors, and 100 μM Ascorbate were added to initiate the enzymatic reaction. The reaction mixture was incubated at room temperature for 45 minutes. A 10 μl aliquot of a detection mixture of Eu-labeled anti-histone H3K4Me2 antibody (CisBIO Cat #610AXLB) and Streptavidin-XL665 (CisBIO Cat #610 SAXLB) in 200 mM potassium fluoride and 10 mM EDTA was added and kinetic measurements were read at 5 minute intervals for a period of 30 minutes using an Envision Multiplate Reader (PerkinElmer Model 2102; excitation at 320 nm and emmission reads at 615 nm and 665 nm). The IC50 value for each compound was determined from the 665/615 ratio obtained for each 10 point dose-response curve using GraphPad Prism 4 software with a sigmodial dose response. Key: “A”≤100 nM; “B”>100 nM-≤500 nM; “C”>500 nM and N/D is not determined.
In turn, `O=C(O)c1ccnc(-c2nc3ccccc3n2Cc2ccc(Cl)cc2)c1` [Example 1] gave an IC50 of 100 to 500 nM.
To `COc1ccc(Cn2c(-c3cc(C(=O)O)ccn3)nc3ccccc32)cc1` [Example 2] belongs not above 100 nM.
The value for `COc1ccc(CCn2c(-c3cc(C(=O)O)ccn3)nc3ccccc32)cc1` [Example 3] was 100 to 500 nM; that for `COc1ccc(-n2c(-c3cc(C(=O)O)ccn3)nc3ccccc32)cc1` [Example 4] was not above 100 nM.
Turning to `COc1cc(C)ccc1CCn1ccnc1-c1cc(C(=O)O)ccn1` [Example 5], the IC50 is more than 500 nM.
The value for `COc1cc(Cl)ccc1CCn1ccnc1-c1cc(C(=O)O)ccn1` [Example 6] was 100 to 500 nM; that for `Cc1cc(Cl)ccc1CCn1ccnc1-c1cc(C(=O)O)ccn1` [Example 7] was 100 to 500 nM.
`O=C(O)c1ccnc(-c2nccn2CCc2ccc(Cl)cc2)c1` [Example 8] came in with an IC50 of more than 500 nM.
`N#Cc1ccccc1Cn1ccnc1-c1cc(C(=O)O)ccn1` [Example 9] showed an IC50 of 100 to 500 nM.
Turning to `O=C(O)c1ccnc(-c2nccn2Cc2ccc(Cl)cc2)c1` [Example 10], the IC50 was in the range of 100 to 500 nM.
The value for `CCN1CCN(c2ccc(Cn3ccnc3-c3cc(C(=O)O)ccn3)c3c2CCCC3)CC1` [Example 11] was more than 500 nM; that for `Cn1c(-c2ccccn2)cnc1-c1cc(C(=O)O)ccn1` [Example 12] was not above 100 nM.
The value for `Cn1cc(-c2ccccn2)nc1-c1cc(C(=O)O)ccn1` [Example 13] was more than 500 nM.
The value for `O=C(O)c1ccnc(-c2ncc(CO)n2CCc2ccc(Cl)cc2)c1` [Example 14] was 100 to 500 nM; that for `CNC(=O)c1cnc(-c2cc(C(=O)O)ccn2)n1CCc1ccc(Cl)cc1` [Example 15] was not above 100 nM.
`Cc1ccc(-n2ccnc2-c2cc(C(=O)O)ccn2)cc1` [Example 16]: the IC50 is 100 to 500 nM.
To `CN(Cc1ccc(F)cc1)Cc1ccc2nc(-c3cc(C(=O)O)ccn3)n(CCc3ccc(F)cc3)c2c1` [Example 28] belongs 100 to 500 nM; to `O=C(O)c1ccnc(-c2nc3ccccc3n2CC2CCOc3ccccc32)c1` (stereo not drawn) [Example 29], not above 100 nM.
To `O=C(O)c1ccnc(-c2ncc(-c3ccccn3)n2CCc2ccc(Cl)cc2)c1` [Example 31] belongs 100 to 500 nM; to `O=C(O)c1ccnc(-c2ncc(-c3ccccn3)n2Cc2ccc(Oc3ccccc3)cc2)c1` [Example 34], 100 to 500 nM.
To `COc1ccc(N(C)c2ccc(Cn3ccnc3-c3cc(C(=O)O)ccn3)cc2)cc1` [Example 36] belongs more than 500 nM.
Turning to `CCc1ccc(N(C)c2ccc3c(c2)OCCC3Cn2ccnc2-c2cc(C(=O)O)ccn2)cc1` (stereo not drawn) [Example 42], the IC50 was 100 to 500 nM.
To `CN(CCc1cnc(-c2cc(C(=O)O)ccn2)n1CCc1ccc(F)cc1)Cc1ccc(Cl)cc1` [Example 47] belongs not above 100 nM.
In turn, `O=C(O)c1ccnc(-c2ncc(CCN3CCC(c4cc(Cl)cc(Cl)c4)CC3)n2CCc2ccc(F)cc2)c1` [Example 51] showed an IC50 not above 100 nM.
For the molecule `COc1cc(CN2CCC(NCCc3ccccc3)CC2)ccc1Cn1ccnc1-c1cc(C(=O)O)ccn1` [Example 54], the IC50 fell in the range of 100 to 500 nM.
To `CN(Cc1ccccn1)Cc1cnc(-c2cc(C(=O)O)ccn2)n1CCc1ccc(F)cc1` [Example 62] belongs 100 to 500 nM.
The value for `CN(Cc1ccc(N2CCOCC2)cc1)Cc1cnc(-c2cc(C(=O)O)ccn2)n1CCc1ccc(F)cc1` [Example 66] was 100 to 500 nM; that for `CN(Cc1cnc(-c2cc(C(=O)O)ccn2)n1CCc1ccc(F)cc1)C1CCN(Cc2ccccc2)CC1` [Example 68] was not above 100 nM; that for `O=C(O)c1ccnc(-c2ncc(CN(CCO)Cc3ccccc3)n2CCc2ccc(F)cc2)c1` [Example 70] was 100 to 500 nM.
Molecule `CN1CCN(Cc2cnc(-c3cc(C(=O)O)ccn3)n2CCc2ccc(F)cc2)C(c2ccccc2)C1` (stereo not drawn) [Example 72] registered an IC50 not above 100 nM.
To `O=C(O)c1ccnc(-c2ncc(CN3CCC(OC4CCCCC4)CC3)n2CCc2ccc(F)cc2)c1` [Example 74] belongs not above 100 nM; to `O=C(O)c1ccnc(-c2ncc(CN3CCN(CCCOc4ccccc4)CC3)n2CCc2ccc(F)cc2)c1` [Example 76], not above 100 nM.
The molecule `O=C(O)c1ccnc(-c2ncc(CN3CCN(Cc4ccc(C(F)(F)F)cc4)CC3)n2CCc2ccc(F)cc2)c1` [Example 78] gave an IC50 not above 100 nM.
To `O=C(O)c1ccnc(-c2ncc(CN3CCCN(c4ccccc4)CC3)n2CCc2ccc(F)cc2)c1` [Example 82] belongs not above 100 nM.
Molecule `O=C(O)c1ccnc(-c2ncc(CN3CCc4c([nH]c5ccccc45)C3)n2CCc2ccc(F)cc2)c1` [Example 86] showed an IC50 not above 100 nM.
With `CCc1ccc(N(C)c2ccc3c(c2)OCCC3Cn2c(-c3cc(C(=O)O)ccn3)nc3ccccc32)cc1` (stereo not drawn) [Example 88], the IC50 was more than 500 nM.
To `COc1ccc(N(C)c2ccc3c(c2)OCCC3Cn2c(-c3cc(C(=O)O)ccn3)nc3ccccc32)cc1` (stereo not drawn) [Example 90] belongs more than 500 nM; to `CN1CCN(Cc2cnc(-c3cc(C(=O)O)ccn3)n2C)C(c2ccccc2)C1` (stereo not drawn) [Example 101], not above 100 nM.
As to `Cn1c(CN2CCN(Cc3ccc(C(F)(F)F)cc3)CC2)cnc1-c1cc(C(=O)O)ccn1` [Example 107], the IC50 was not above 100 nM.
